Article PMC6270420, “Antibacterial Activity of Salicylanilide 4-(Trifluoromethyl)benzoates” (Molecules, 2013)
Converted amounts (≈) assume the structure as drawn. Where two headings read alike, the source gives them in different places.

Columns and labels:
[1] = test system: Mycobacterium tuberculosis 331/88 (H37Rv); assay: Antimycobacterial MIC micromethod, Šula's medium; format: cell-based
[2] = test system: Mycobacterium avium 330/88; assay: Antimycobacterial MIC micromethod; format: cell-based
[3] = test system: Mycobacterium kansasii 235/80; assay: Antimycobacterial MIC micromethod; format: cell-based; conditions: read-out: MIC M. kansasii 235/80
[4] = test system: M. kansasii 6509/96 (clinically isolated strain); assay: Antimycobacterial MIC micromethod; format: cell-based; conditions: Mycobacterium kansasii, read-out: MIC M. kansasii 6509/96
[5] = molecular target: T1, mycobacterial isocitrate lyase (ICL1, Rv0467) (Mycobacterium tuberculosis, UniProt P9WKK7); assay: Isocitrate lyase inhibition assay (ICL1); format: biochemical, Mycobacterium tuberculosis H37Rv; conditions: 10 μmol/L; read-out: % ICL inhibition at 10 μmol/L (± standard deviation)
T1 construct: His tag (from pET-28b(+)); made in house; host or cells: E. coli BL21(DE3), pET-28b(+) plasmid
T1 sequence (P9WKK7 1-428): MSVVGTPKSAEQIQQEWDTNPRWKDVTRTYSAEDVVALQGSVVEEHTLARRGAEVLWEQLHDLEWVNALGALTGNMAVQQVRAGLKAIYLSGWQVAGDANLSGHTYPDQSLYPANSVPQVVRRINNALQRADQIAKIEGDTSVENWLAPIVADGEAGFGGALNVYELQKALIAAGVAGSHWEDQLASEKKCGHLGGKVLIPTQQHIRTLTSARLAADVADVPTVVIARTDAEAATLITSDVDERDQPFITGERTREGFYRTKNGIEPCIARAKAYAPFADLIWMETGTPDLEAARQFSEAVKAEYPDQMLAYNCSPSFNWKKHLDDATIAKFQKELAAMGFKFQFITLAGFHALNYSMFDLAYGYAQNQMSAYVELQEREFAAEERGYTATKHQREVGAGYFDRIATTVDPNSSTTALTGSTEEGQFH

Mtb. 7357/1988 = assay: microbe, parasite or virus in culture; format: cell-based; conditions: Mycobacterium tuberculosis, read-out: MIC Mtb. 7357/1988
Mtb. 9449/2006 = assay: microbe, parasite or virus in culture; format: cell-based; conditions: Mycobacterium tuberculosis, read-out: MIC Mtb. 9449/2006
Mtb. 53/2009 = assay: microbe, parasite or virus in culture; format: cell-based; conditions: Mycobacterium tuberculosis, read-out: MIC Mtb. 53/2009
Mtb. 234/2005 = assay: microbe, parasite or virus in culture; format: cell-based; conditions: Mycobacterium tuberculosis, read-out: MIC Mtb. 234/2005
Mtb. Praha 1 = assay: microbe, parasite or virus in culture; format: cell-based; conditions: Mycobacterium tuberculosis, read-out: MIC Mtb. Praha 1
Mtb. Praha 131 (XDR-TB) = assay: microbe, parasite or virus in culture; format: cell-based; conditions: Mycobacterium tuberculosis, read-out: MIC Mtb. Praha 131 (XDR-TB)
[6] = 336 h, 14 d, read-out: MIC Mtb. 331/88
[7] = 504 h, 21 d, read-out: MIC Mtb. 331/88

Compound | MIC [1, 6] | MIC [1, 7] | MIC ([2]; 330/88, 336 h, 14 d) | MIC ([2]; 330/88, 504 h, 21 d) | MIC ([3]; 235/80, 168 h, 7 d) | MIC ([3]; 235/80, 336 h, 14 d) | MIC ([3]; 235/80, 504 h, 21 d) | MIC ([4]; 168 h, 7 d) | MIC ([4]; 336 h, 14 d) | MIC ([4]; 504 h, 21 d) | inhibition at 10 µM [5] | MIC (Mtb. 7357/1988; 336 h) | MIC (Mtb. 7357/1988; 504 h) | MIC (Mtb. 9449/2006; 336 h) | MIC (Mtb. 9449/2006; 504 h) | MIC (Mtb. 53/2009; 336 h) | MIC (Mtb. 53/2009; 504 h) | MIC (Mtb. 234/2005; 336 h) | MIC (Mtb. 234/2005; 504 h) | MIC (Mtb. Praha 1; 336 h) | further results
O=C(Oc1ccc(Cl)cc1C(=O)Nc1cccc(C(F)(F)F)c1)c1ccc(C(F)(F)F)cc1 [1q] | 2 µM (≈ 0.976 µg/mL) | 2 µM (≈ 0.976 µg/mL) | 4 µM (≈ 1.95 µg/mL) | 16 µM (≈ 7.8 µg/mL) | 2 µM (≈ 0.976 µg/mL) | 4 µM (≈ 1.95 µg/mL) | 8 µM (≈ 3.9 µg/mL) | 1 µM (≈ 0.488 µg/mL) | 4 µM (≈ 1.95 µg/mL) | 8 µM (≈ 3.9 µg/mL) | 19 ± 0.5% | – | – | – | – | – | – | – | – | – | –
O=C(Oc1cc(Cl)ccc1C(=O)Nc1ccc(Cl)cc1)c1ccc(C(F)(F)F)cc1 [1d] | 4 µM (≈ 1.82 µg/mL) | 4 µM (≈ 1.82 µg/mL) | 4 µM (≈ 1.82 µg/mL) | 8 µM (≈ 3.63 µg/mL) | 1 µM (≈ 0.454 µg/mL) | 4 µM (≈ 1.82 µg/mL) | 4 µM (≈ 1.82 µg/mL) | 1 µM (≈ 0.454 µg/mL) | 4 µM (≈ 1.82 µg/mL) | 4 µM (≈ 1.82 µg/mL) | 12 ± 2.3% | 4 µM (≈ 1.82 µg/mL) | 4 µM (≈ 1.82 µg/mL) | 4 µM (≈ 1.82 µg/mL) | 4 µM (≈ 1.82 µg/mL) | 4 µM (≈ 1.82 µg/mL) | 4 µM (≈ 1.82 µg/mL) | 4 µM (≈ 1.82 µg/mL) | 4 µM (≈ 1.82 µg/mL) | 2 µM (≈ 0.908 µg/mL) | MIC (Mtb. Praha 1; 504 h): 4 µM (≈ 1.82 µg/mL); MIC (Mtb. Praha 131 (XDR-TB); 336 h): 2 µM (≈ 0.908 µg/mL); MIC (Mtb. Praha 131 (XDR-TB); 504 h): 4 µM (≈ 1.82 µg/mL)
Nc1ccc(C(=O)O)c(O)c1 [PAS, p-aminosalicylic acid, reference compound] | 62.5 µM (≈ 9.57 µg/mL) | 62.5 µM (≈ 9.57 µg/mL) | 32 µM (≈ 4.9 µg/mL) | 125 µM (≈ 19.1 µg/mL) | – | – | – | – | – | – | – | – | – | – | – | – | – | – | – | – | MIC ([3]; 235/80, 168 h): 125 µM (≈ 19.1 µg/mL); MIC ([3]; 235/80, 336 h): 1000 µM (≈ 153 µg/mL); MIC ([3]; 235/80, 504 h): > 1000 µM; MIC ([4]; 168 h): 32 µM (≈ 4.9 µg/mL); MIC ([4]; 336 h): 125 µM (≈ 19.1 µg/mL); MIC ([4]; 504 h): 500 µM (≈ 76.6 µg/mL)
O=C(Oc1cc(Cl)ccc1C(=O)Nc1ccc(F)cc1)c1ccc(C(F)(F)F)cc1 [1n] | 4 µM (≈ 1.75 µg/mL) | 8 µM (≈ 3.5 µg/mL) | 4 µM (≈ 1.75 µg/mL) | 4 µM (≈ 1.75 µg/mL) | 2 µM (≈ 0.876 µg/mL) | 8 µM (≈ 3.5 µg/mL) | 8 µM (≈ 3.5 µg/mL) | 4 µM (≈ 1.75 µg/mL) | 8 µM (≈ 3.5 µg/mL) | 8 µM (≈ 3.5 µg/mL) | 17 ± 1.3% | – | – | – | – | – | – | – | – | – | –
O=C(Oc1ccc(Cl)cc1C(=O)Nc1ccc(Cl)cc1)c1ccc(C(F)(F)F)cc1 [1c] | 2 µM (≈ 0.908 µg/mL) | 2 µM (≈ 0.908 µg/mL) | 4 µM (≈ 1.82 µg/mL) | 8 µM (≈ 3.63 µg/mL) | 1 µM (≈ 0.454 µg/mL) | 2 µM (≈ 0.908 µg/mL) | 2 µM (≈ 0.908 µg/mL) | 1 µM (≈ 0.454 µg/mL) | 4 µM (≈ 1.82 µg/mL) | 4 µM (≈ 1.82 µg/mL) | 12 ± 2.7% | 2 µM (≈ 0.908 µg/mL) | 2 µM (≈ 0.908 µg/mL) | 2 µM (≈ 0.908 µg/mL) | 2 µM (≈ 0.908 µg/mL) | 4 µM (≈ 1.82 µg/mL) | 4 µM (≈ 1.82 µg/mL) | 4 µM (≈ 1.82 µg/mL) | 4 µM (≈ 1.82 µg/mL) | 2 µM (≈ 0.908 µg/mL) | MIC (Mtb. Praha 1; 504 h): 2 µM (≈ 0.908 µg/mL); MIC (Mtb. Praha 131 (XDR-TB); 336 h): 2 µM (≈ 0.908 µg/mL); MIC (Mtb. Praha 131 (XDR-TB); 504 h): 2 µM (≈ 0.908 µg/mL)
O=C(Oc1ccc(Cl)cc1C(=O)Nc1cccc(Cl)c1)c1ccc(C(F)(F)F)cc1 [1a] | 2 µM (≈ 0.908 µg/mL) | 4 µM (≈ 1.82 µg/mL) | 8 µM (≈ 3.63 µg/mL) | 16 µM (≈ 7.27 µg/mL) | 0.5 µM (≈ 0.227 µg/mL) | 2 µM (≈ 0.908 µg/mL) | 4 µM (≈ 1.82 µg/mL) | 2 µM (≈ 0.908 µg/mL) | 8 µM (≈ 3.63 µg/mL) | 8 µM (≈ 3.63 µg/mL) | 18 ± 1.9% | 4 µM (≈ 1.82 µg/mL) | 4 µM (≈ 1.82 µg/mL) | 4 µM (≈ 1.82 µg/mL) | 4 µM (≈ 1.82 µg/mL) | 4 µM (≈ 1.82 µg/mL) | 4 µM (≈ 1.82 µg/mL) | 4 µM (≈ 1.82 µg/mL) | 4 µM (≈ 1.82 µg/mL) | 4 µM (≈ 1.82 µg/mL) | MIC (Mtb. Praha 1; 504 h): 4 µM (≈ 1.82 µg/mL); MIC (Mtb. Praha 131 (XDR-TB); 336 h): 4 µM (≈ 1.82 µg/mL); MIC (Mtb. Praha 131 (XDR-TB); 504 h): 4 µM (≈ 1.82 µg/mL)
O=C(Oc1cc(Cl)ccc1C(=O)Nc1cccc(F)c1)c1ccc(C(F)(F)F)cc1 [1l] | 4 µM (≈ 1.75 µg/mL) | 4 µM (≈ 1.75 µg/mL) | 8 µM (≈ 3.5 µg/mL) | 16 µM (≈ 7 µg/mL) | 4 µM (≈ 1.75 µg/mL) | 8 µM (≈ 3.5 µg/mL) | 8 µM (≈ 3.5 µg/mL) | 8 µM (≈ 3.5 µg/mL) | 8 µM (≈ 3.5 µg/mL) | 16 µM (≈ 7 µg/mL) | ≥ 20% | – | – | – | – | – | – | – | – | – | –
NNC(=O)c1ccncc1 [INH, isoniazid, reference compound] | 0.5 to 1 µM (≈ 0.0686 to 0.137 µg/mL) | 0.5 to 1 µM (≈ 0.0686 to 0.137 µg/mL) | ≥ 250 µM | ≥ 250 µM | – | – | – | – | – | – | 0% | – | – | – | – | – | – | – | – | – | MIC ([1]; time not stated, read-out: MIC against M. tuberculosis): 1 µM (≈ 0.137 µg/mL); MIC ([3]; 235/80, 168 h): > 250 µM; MIC ([3]; 235/80, 336 h): > 250 µM; MIC ([3]; 235/80, 504 h): > 250 µM; MIC ([4]; 168 h): 2 to 4 µM (≈ 0.274 to 0.549 µg/mL); MIC ([4]; 336 h): 4 to 8 µM (≈ 0.549 to 1.1 µg/mL); MIC ([4]; 504 h): 8 to 16 µM (≈ 1.1 to 2.19 µg/mL)
O=C(O)CC[N+](=O)[O-] [3-NP, 3-nitropropionic acid, reference compound] | – | – | – | – | – | – | – | – | – | – | 25 ± 4.1% | – | – | – | – | – | – | – | – | – | –
O=C(Oc1ccc(Cl)cc1C(=O)Nc1ccc(Br)cc1)c1ccc(C(F)(F)F)cc1 [1i] | 2 µM (≈ 0.997 µg/mL) | 2 µM (≈ 0.997 µg/mL) | 8 µM (≈ 3.99 µg/mL) | 8 µM (≈ 3.99 µg/mL) | 1 µM (≈ 0.499 µg/mL) | 4 µM (≈ 1.99 µg/mL) | 8 µM (≈ 3.99 µg/mL) | 2 µM (≈ 0.997 µg/mL) | 8 µM (≈ 3.99 µg/mL) | 8 µM (≈ 3.99 µg/mL) | 18 ± 1.2% | 2 µM (≈ 0.997 µg/mL) | 4 µM (≈ 1.99 µg/mL) | 2 µM (≈ 0.997 µg/mL) | 4 µM (≈ 1.99 µg/mL) | 4 µM (≈ 1.99 µg/mL) | 4 µM (≈ 1.99 µg/mL) | 2 µM (≈ 0.997 µg/mL) | 2 µM (≈ 0.997 µg/mL) | 2 µM (≈ 0.997 µg/mL) | MIC (Mtb. Praha 1; 504 h): 2 µM (≈ 0.997 µg/mL); MIC (Mtb. Praha 131 (XDR-TB); 336 h): 2 µM (≈ 0.997 µg/mL); MIC (Mtb. Praha 131 (XDR-TB); 504 h): 2 µM (≈ 0.997 µg/mL)
